Source: patent US9707229B2, “Compositions and methods for treating an infection” (CMPD LICENSING, LLC, priority 2015, dated 2017)

Key:
Type in all cases: cell-based
Leishmania donovani = assay: Expected efficacy of antifungal agents
Aspergillus terreus = assay: Expected efficacy of antifungal agents
[1] = system: Paracoccidioides brasiliensis; assay: Expected efficacy of antifungal agents
Histoplasma capsulatum = conditions: expected efficacy
Blastomyces dermatitidis = assay: Expected efficacy of antifungal agents
Coccidioides immitis = conditions: expected efficacy
Aspergillus fumigatus = assay: Expected efficacy of antifungal agents
Cryptococcus neoformans = assay: Expected efficacy of antifungal agents
Aspergillus flavus = assay: Expected efficacy of antifungal agents
Leishmania infantum = assay: Expected efficacy of antifungal agents
Candida species = assay: Expected efficacy of antifungal agents
Aspergillus niger = assay: Expected efficacy of antifungal agents
Fusarium species = assay: Expected efficacy of antifungal agents
Scedosporium apiospermum = assay: Expected efficacy of antifungal agents
Histoplasma duboisii = conditions: expected efficacy
[2] = system: Trichophyton mentagrophytes; assay: Expected efficacy of antifungal agents
Trichophyton rubrum = assay: Expected efficacy of antifungal agents
Sporothrix schenckii = assay: Expected efficacy of antifungal agents

C[C@@H]1[C@H](O)[C@@H](C)/C=C/C=C/C=C/C=C/C=C/C=C/C=C/[C@H](O[C@@H]2O[C@H](C)[C@@H](O)[C@H](N)[C@@H]2O)C[C@@H]2O[C@](O)(C[C@@H](O)C[C@@H](O)[C@H](O)CC[C@@H](O)C[C@@H](O)CC(=O)O[C@H]1C)C[C@H](O)[C@H]2C(=O)O [Amphotericin]
yes: efficacy against Leishmania donovani (Leishmania donovani) | efficacy against Aspergillus terreus (Aspergillus terreus) | efficacy against Paracoccidioides brasiliensis [1] | efficacy against Histoplasma capsulatum (Histoplasma capsulatum) | efficacy against Blastomyces dermatitidis (Blastomyces dermatitidis) | efficacy against Coccidioides immitis (Coccidioides immitis) | efficacy against Aspergillus fumigatus (Aspergillus fumigatus) | efficacy against Cryptococcus neoformans (Cryptococcus neoformans) | efficacy against Aspergillus flavus (Aspergillus flavus) | efficacy against Leishmania infantum (Leishmania infantum) | efficacy against Candida species (Candida species) | efficacy against Aspergillus niger (Aspergillus niger)

C[C@@H](c1ncncc1F)[C@](O)(Cn1cncn1)c1ccc(F)cc1F [Voriconazole]
yes: efficacy against Fusarium species (Fusarium species) | efficacy against Aspergillus terreus (Aspergillus terreus) | efficacy against Aspergillus fumigatus (Aspergillus fumigatus) | efficacy against Aspergillus flavus (Aspergillus flavus) | efficacy against Candida species (Candida species) | efficacy against Scedosporium apiospermum (Scedosporium apiospermum) | efficacy against Aspergillus niger (Aspergillus niger)

Itraconazole
yes: efficacy against Histoplasma duboisii (Histoplasma duboisii) | efficacy against Trichophyton mentagrophytes [2] | efficacy against Paracoccidioides brasiliensis [1] | efficacy against Trichophyton rubrum (Trichophyton rubrum) | efficacy against Blastomyces dermatitidis (Blastomyces dermatitidis) | efficacy against Coccidioides immitis (Coccidioides immitis) | efficacy against Aspergillus fumigatus (Aspergillus fumigatus) | efficacy against Cryptococcus neoformans (Cryptococcus neoformans) | efficacy against Aspergillus flavus (Aspergillus flavus) | efficacy against Sporothrix schenckii (Sporothrix schenckii) | efficacy against Candida species (Candida species)
